The results in this text go back to paper PMC10455806, “New Sorbicillinoids from the Mangrove Endophytic Fungus Trichoderma reesei SCNU-F0042” (Marine Drugs, 2023).

Where two headings read alike, the source gives them in different places. Where only a bound is given, the exact number is not on record here.

Common to all, as to format: cell-based
The subject of one series is SARS-CoV-2 (BA.2). As to the kind of experiment: microbe, parasite or virus in culture. The following applies: for EC50: 48 h, mean from three parallel experiments, read-out: Inhibition of SARS-CoV-2 Viruses (EC50/μM).
Series [1] is described as follows: Cell viability assay (MTT method). As to conditions: human. The protocol: (§1) […] Tested cell lines were cultured in Dulbecco’s modified Eagle’s medium (DMEM) (Invitrogen, Carlsbad, CA, USA) supplemented with 5% fetal bovine serum (Hyclone, Logan, UT, USA), 2 mM L-glutamine, […] streptomycin, and 100 units/mL penicillin (Invitrogen). The cultures were maintained at 37 °C in a humidified atmosphere of 5% CO2.

For the next series, the system named is HEK 293T-hACE2 cells. The series is described as follows: Cell viability assay (MTT method). The following applies: at 80 μM, 293T cells. As for the experimental part: as §1
The mark [2] stands for this setting: Severe acute respiratory syndrome coronavirus 2, HEK-293T, […].
The mark [3] stands for this setting: 293T cell, MTT, mean from three parallel experiments, read-out: Cytotoxicity for 293T Cell (IC50/μM).

Regarding `CC=CC=CC(=O)C1C(C2(C)OC(=O)C(C)=C2O)C2C(=C(O)C=CC=CCO)C(=O)C1(C)C(=O)C2(C)O` (stereo not drawn) [Compound 1, 14-hydroxybislongiquinolide], the “antiviral activity against SARS-CoV-2” value with SARS-CoV-2 (BA.2) is given as “no activity”. Moreover, in the series with SARS-CoV-2 (BA.2) (setting [2]), the EC50 is more than 80 µM. For the same compound, the IC50 in series [1] (setting [3]) was more than 80 µM.
For `CC=CC=CC(O)=C1C(=O)C2(C)C(=O)C(C)(O)C1C(C1(C)OC(=O)C(C)=C1O)C2C(=O)C=CC=CCO` (stereo not drawn) [Compound 2, 20-hydroxybislongiquinolide], in the series with SARS-CoV-2 (BA.2) (setting [2]), the EC50 was found to be 29 µM. Further, the cytotoxicity entry in the series on HEK 293T-hACE2 cells is given as “without cytotoxicity”. Further, the IC50 in series [1] (setting [3]) is more than 80 µM.
As for `CC1=C(O)C(C)(C2C3C(=C(O)C=CC=CCO)C(=O)C(C)(C(=O)C3(C)O)C2C(=O)C=CC=CCO)OC1=O` (stereo not drawn) [Compound 3, 14, 20-dihydroxybislongiquinolide], the “antiviral activity against SARS-CoV-2” value in the series with SARS-CoV-2 (BA.2) is on record as “no activity”. Further, the EC50 with SARS-CoV-2 (BA.2) (setting [2]) was more than 80 µM. Also, in series [1] (setting [3]), the IC50 is more than 80 µM.
Turning to `CC(=O)Oc1cc(/C=C/C=C/C(=O)O)oc(=O)c1C` [Compound 5, Acetylchrysopyrone B], the “antiviral activity against SARS-CoV-2” value in the series on SARS-CoV-2 (BA.2) is on record as “no activity”. Moreover, in the series on SARS-CoV-2 (BA.2) (setting [2]), the EC50 is more than 80 µM. Also, the IC50 in series [1] (setting [3]) is more than 80 µM.
For the compound `CCC(CC)COC(=O)[C@H](C)N[P@](=O)(OC[C@H]1O[C@@](C#N)(c2ccc3c(N)ncnn23)[C@H](O)[C@@H]1O)Oc1ccccc1` [Remdesivir, reference compound], the EC50 in the series with SARS-CoV-2 (BA.2) (setting [2]) worked out at 1.2 µM. Besides, the IC50 is 1200 nM with SARS-CoV-2 (BA.2) (Severe acute respiratory syndrome coronavirus 2, HEK-293T, […], read-out: IC50 (positive control, SARS-CoV-2 assay)) and more than 80 µM in series [1].
